We go through nine molecules from article PMC11974249 (Drug metabolism and pharmacokinetics, 2024).

SMILES strings stand for the structures.

Series [1] in a line: Fraction unbound to plasma proteins by ultrafiltration. The series is classed as in vitro ADME. The following applies: plasma protein in sodium phosphate buffer, pH 7.4.
Series [2] in a line: Enzyme kinetics of hydrolysis. It is filed as in vitro ADME, human. The following applies: for EH: hepatic extraction ratio; for ClH: well-stirred model, Q 21 ml/min/kg; for Km at 15 min / CLint scaled / microsomal CLint: both, human, pH 7.4; for Km at 15 min: human liver microsomes (pooled); for CLint scaled / microsomal CLint: human liver microsomes. In general terms: Microsomes from liver hold many membrane-bound enzymes, among them those of drug oxidation.

Series [3] is described as follows: Depletion of parent compound over 90 min in fresh or thermally-inactivated HLC. The series is classed as in vitro ADME, human.
Series [4] can be described thus: Depletion of parent compound over 90 min in fresh or thermally-inactivated HLM. It is filed as in vitro ADME, human. The following applies: for parent level remaining: at 90 min.
A short description of series [5]: Enzyme kinetics of hydrolysis. The series is classed as in vitro ADME, human. To be noted: for Vmax: HLC 0.2 mg/ml, 15 min, 37 °C, rate of carboxylate metabolite formation; for Km at 15 min / CLint scaled / microsomal CLint: both, human, pH 7.4; for Km at 15 min: human liver cytosol (pooled); for CLint scaled / microsomal CLint: human liver cytosol.
Series [6] concerns arecoline hydrolase activity in HLM. The series can be described thus: Reaction phenotyping with esterase inhibitors in HLM. To be noted: HLM 0.2 mg/ml, arecoline 25 μM, 15 min; loperamide 1 μM, digitonin 20 μM, ethanol 41 mM, BNPP 10 μM, BW284c51 25 μM, ethopropazine 1 μM, vinblastine 10 μM. It is filed as biochemical, human.
In series [7] the test system is arecoline hydrolase activity in HLC. As to the kind of experiment: Reaction phenotyping with esterase inhibitors in HLC. It is filed as biochemical, human. The following applies: HLC 0.2 mg/ml, arecoline 25 μM, 15 min; inhibitor concentrations as in HLM.
The conditions of series [8]: subjects with Alzheimer's disease treated with arecoline; cited from earlier work.
For a further series, the system named is plasma proteins. As to the kind of experiment: Fraction unbound to plasma proteins by ultrafiltration. The following applies: from fu.p. The series is classed as in vitro ADME.
In a further series the target is T1, human recombinant CES2 (Homo sapiens, UniProt O00748).
T1 sequence (O00748 27-559): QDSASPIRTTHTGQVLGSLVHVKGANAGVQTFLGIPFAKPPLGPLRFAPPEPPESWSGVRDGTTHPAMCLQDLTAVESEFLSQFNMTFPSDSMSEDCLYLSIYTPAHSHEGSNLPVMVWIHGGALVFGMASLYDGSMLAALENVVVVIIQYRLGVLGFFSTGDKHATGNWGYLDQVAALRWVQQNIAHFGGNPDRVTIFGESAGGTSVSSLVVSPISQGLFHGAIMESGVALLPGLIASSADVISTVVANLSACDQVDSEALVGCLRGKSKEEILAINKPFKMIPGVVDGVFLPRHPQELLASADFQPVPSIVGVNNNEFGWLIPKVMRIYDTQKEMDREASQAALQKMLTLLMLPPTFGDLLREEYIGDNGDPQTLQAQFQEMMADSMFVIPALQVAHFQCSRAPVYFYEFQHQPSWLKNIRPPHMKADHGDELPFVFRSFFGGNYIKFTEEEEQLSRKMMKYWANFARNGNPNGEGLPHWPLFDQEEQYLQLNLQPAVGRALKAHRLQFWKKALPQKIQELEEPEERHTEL
The series can be described thus: Arecoline hydrolysis by human recombinant CES2. It is filed as in vitro ADME. To be noted: 5–40 min, CES protein 0.1–0.4 mg/ml.

In the next series the target is T2, human recombinant CES1 (Homo sapiens, UniProt P23141).
T2 sequence (P23141 18-567): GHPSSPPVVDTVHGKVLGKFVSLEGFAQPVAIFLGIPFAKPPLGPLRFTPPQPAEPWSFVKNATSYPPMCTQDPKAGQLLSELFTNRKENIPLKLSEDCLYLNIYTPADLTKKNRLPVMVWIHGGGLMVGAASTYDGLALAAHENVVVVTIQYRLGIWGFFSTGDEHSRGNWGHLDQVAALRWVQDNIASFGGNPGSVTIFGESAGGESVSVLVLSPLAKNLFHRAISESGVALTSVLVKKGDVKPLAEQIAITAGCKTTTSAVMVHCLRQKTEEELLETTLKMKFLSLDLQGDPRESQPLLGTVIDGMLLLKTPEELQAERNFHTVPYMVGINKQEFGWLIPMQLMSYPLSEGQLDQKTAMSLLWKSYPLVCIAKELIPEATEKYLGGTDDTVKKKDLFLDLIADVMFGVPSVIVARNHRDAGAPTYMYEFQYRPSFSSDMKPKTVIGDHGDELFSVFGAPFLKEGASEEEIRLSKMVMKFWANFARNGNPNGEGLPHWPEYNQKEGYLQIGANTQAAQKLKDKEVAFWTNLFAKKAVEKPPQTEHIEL
As to the kind of experiment: Arecoline hydrolysis by human recombinant CES1. It is filed as in vitro ADME. To be noted: 5–40 min, CES protein 0.1–0.4 mg/ml.

The conditions of series [9]: mouse liver homogenate, cited from earlier work.
Series [10] is described as follows: Arecoline hydrolysis in human intestinal microsomes and cytosol. It is filed as in vitro ADME.
[11] abbreviates: both, human, human liver cytosol, pH 7.4.
Where [12] appears, read: both, human, human liver microsomes, pH 7.4.

Consider `COC(=O)C1=CCCNC1` [guvacoline], for which the unbound share (fraction unbound) (as a rule, free concentration divided by total concentration) at 15 min in series [1] was determined as 0.998. Besides, in [2] (HLM), the “ClH less compared to arecoline” value stood at 96%, the “Clint.invivo less compared to arecoline” value was determined as 99%, the “EH less compared to arecoline” value is recorded as 96% and the “Vmax less compared to arecoline” value was 96%. In series [2] (HLM), the EH is listed as 0.0306 and the ClH was 0.643 mL/min/kg. The Vmax in series [2] (HLM 0.2 mg/ml, 15 min, 37 °C, rate of carboxylate metabolite formation) was found to be 35 nmol/min/mg protein. In series [2], the Km (in general, the concentration of substrate that gives half-maximal velocity) at 15 min worked out at 34.3 mM; the CLint scaled (in general, the rate of metabolic loss divided by the concentration) is 0.654 mL/min/kg; the intrinsic clearance (microsomal CLint) (usually the rate of metabolic loss divided by the concentration) was 1.02 µL/min/mg. Moreover, the depletion over time result in [3] (HLC, all tested concentrations, data not shown) is “only minimal depletion”. Besides, in series [4] (HLM, all concentrations (0.01, 0.1, 1.0 mM), 90 min), the depletion over time result was “only minimal depletion”. Moreover, the parent level remaining in [4] (HLM) is given as 98 % control. In series [5], the Vmax was 14.4 nmol/min/mg protein, the Km at 15 min is 27.8 mM, the CLint scaled came out at 0.466 mL/min/kg and the intrinsic metabolic clearance (microsomal CLint) stood at 0.518 µL/min/mg.

For the molecule `CC[C@]1(O)C[C@@H]2CN(CCc3c([nH]c4ccccc34)[C@@](C(=O)OC)(c3cc4c(cc3OC)N(C)[C@H]3[C@@](O)(C(=O)OC)[C@H](OC(C)=O)[C@]5(CC)C=CCN6CC[C@]43[C@@H]65)C2)C1` [vinblastine], in series [6], the “percent activity of arecaidine formation compared to control” value (“percent activity of arecaidine formation” for short) was 100%. Moreover, the “change in mean percent activity of arecoline hydrolase compared to control” value (“change in mean percent activity” for short) in [7] is “no significant change”.

Regarding `C[C@@H]1CC[C@@]2(OC1)O[C@H]1[C@@H](O)[C@H]3[C@@H]4CC[C@H]5C[C@@H](O[C@@H]6O[C@H](CO)[C@H](O[C@@H]7O[C@H](CO)[C@@H](O)[C@H](O[C@@H]8OC[C@@H](O)[C@H](O)[C@H]8O)[C@H]7O[C@@H]7O[C@H](CO)[C@H](O)[C@H](O[C@@H]8O[C@H](CO)[C@@H](O)[C@H](O)[C@H]8O)[C@H]7O)[C@H](O)[C@H]6O)[C@H](O)C[C@]5(C)[C@H]4CC[C@]3(C)[C@H]1[C@@H]2C` [digitonin], the “percent activity of arecaidine formation” value in series [6] came out at 70%. The “change in mean percent activity” value in series [7] was “significant reductions”.

As for `CCN(CC)C(C)CN1c2ccccc2Sc2ccccc21` (centres unmarked) [ethopropazine], the “percent activity of arecaidine formation” value in series [6] was 102%. Further, the “change in mean percent activity” value in series [7] is “no significant change”.

For the molecule `C=CC[N+](C)(C)c1ccc(CCC(=O)CCc2ccc([N+](C)(C)CC=C)cc2)cc1.[Br-].[Br-]` [BW284c51, 1,5-Bis(4-allyldimethylammoniumphenyl)pentan-3-one dibromide], in series [6], the “percent activity of arecaidine formation” value is recorded as 103%. Besides, the “change in mean percent activity” value in series [7] is recorded as “no significant change”.

Take `COC(=O)C1=CCCN(C)C1` [arecoline]: the “average elimination T1/2 in plasma” value in series [8] is given as 10.5 min. Moreover, in the series with plasma proteins, the “amount available for distribution to peripheral tissues” value is ~ 98% and the “amount predicted to bind plasma proteins” value is recorded as ~ 2%. This molecule returned a fraction unbound at 15 min in series [1] of 0.978. Besides, the “hydrolysis by CES2” value on human recombinant CES2 is reported as “no hydrolysis”. In series [2] (HLM), the EH was found to be 0.733 and the ClH worked out at 15.4 mL/min/kg. In addition, in series [2], the Michaelis-Menten constant (Km) at 15 min worked out at 8.68 mM, the CLint scaled came out at 57.8 mL/min/kg and the microsomal CLint worked out at 90.3 µL/min/mg. In series [2] (from EH in HLM), the extraction ratio class entry is given as “high (> 0.7)”. For the same molecule, the “hydrolysis by CES1” value at human recombinant CES1 was “sub-stantial hydrolysis”. Further, the “arecoline concentration remaining in HLC samples compared to HLM samples” value in series [3] (at 90 min, initial arecoline 10 μM) is listed as “approximately 12.8 fold”. Moreover, in series [3] (setting [11]), the half-life (in general, how long it takes for the measured level to halve) at 10 μM is 97 min; the half-life at 100 μM was 99.8 min; the half-life at 1000 μM was 126 min. The parent level remaining in series [4] (HLM) was 5.6 % control. In [4] (setting [12]), the half-life at 10 μM is 15.7 min, the half-life at 100 μM is 16.6 min and the half-life at 1000 μM stood at 17.2 min. The depletion in series [9] (30 min incubation) is around 100%. The “maximum rate of arecoline depletion” value in [9] is recorded as 4.7 nmol/min/mg protein. Also, in series [5], the Vmax stood at 118 nmol/min/mg protein, the Michaelis-Menten constant (Km) at 15 min came out at 9.11 mM, the intrinsic clearance (CLint scaled) came to 11.6 mL/min/kg and the microsomal CLint was found to be 12.9 µL/min/mg. For the same molecule, the “arecoline hydrolysis in intestinal sub-cellular fractions” value in series [10] is “no arecoline hydrolysis”.

For `CN(C)C(=O)C(CCN1CCC(O)(c2ccc(Cl)cc2)CC1)(c1ccccc1)c1ccccc1` [loperamide], in series [6], the “percent activity of arecaidine formation” value came to 100.2%. Besides, the “change in mean percent activity” value in series [7] is recorded as “no significant change”.

Take `O=[N+]([O-])c1ccc(OP(=O)(O)Oc2ccc([N+](=O)[O-])cc2)cc1` [BNPP, bis(4-nitrophenyl)-phosphate]: the “percent activity of arecaidine formation” value in [6] came out at 14.4%. Further, in series [7], the “change in mean percent activity” value was “significant reductions”.

As to `CCO` [ethanol], the “percent activity of arecaidine formation” value in [6] stood at 44.6%. Further, in [7], the “change in mean percent activity” value is “significant reductions”.
